Molecular target: T1, GST-tagged ROR gamma ligand binding domain (LBD) (Homo sapiens, UniProt P51449)
T1 construct: purchased Invitrogen
T1 sequence (P51449 269-508 limits assumed): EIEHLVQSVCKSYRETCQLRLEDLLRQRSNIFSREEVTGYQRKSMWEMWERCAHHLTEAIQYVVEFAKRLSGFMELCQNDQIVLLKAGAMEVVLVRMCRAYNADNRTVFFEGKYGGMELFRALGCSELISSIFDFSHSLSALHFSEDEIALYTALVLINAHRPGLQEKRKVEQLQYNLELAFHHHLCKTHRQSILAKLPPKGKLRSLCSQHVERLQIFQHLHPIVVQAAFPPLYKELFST
Assay: TR-FRET assay for ROR gamma (LanthaScreen co-activator peptide recruitment)
Assay type: biochemical
Details: for IC50: class symbols, from dose response curve; for inhibition at 1 µM: compound 1 μM; for inhibition at 1 µM / inhibition at 10 µM: TR-FRET ratio 520/495, percent of control; for inhibition at 10 µM: compound 10 μM
Procedure, shortened: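 Antagonist mode: 10 nM GST-RORγ LBD pre-incubated with compound 1 h at 22 °C in 25 mM HEPES pH 7.4, 100 mM NaCl, 5 mM DTT, 0.01% BSA, 4% DMSO final. Then 300 nM fluorescein-D22 co-activator peptide plus 10 nM Tb-anti-GST added, 1 h at room temperature. IC50 by nonlinear regression of the 520/495 TR-FRET ratio as percent of no-compound control.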

SMILES	IC50 [µM]	inhibition at 1 µM [%]	inhibition at 10 µM [%]
CCS(=O)(=O)c1ccc(CC(=O)Nc2ccc(OC3(c4nc5cc(Cl)ccc5n4C)CCC3)cc2)cc1 [Example 25, N-{4-[1-(5-Chloro-1-methyl-1H-benzoimidazol-2-yl)-cyclobutoxy]-phenyl}-2-(4-ethanesulfonyl-phenyl)-acetamide]	0.05 to 0.1	85.3	94.2
CCS(=O)(=O)c1ccc(CC(=O)Nc2ccc3c(c2)nc(C(C)(C)Oc2ccc(F)cc2F)n3CCF)cc1 [Example 145, N-(2-(2-(2,4-Difluorophenoxy)propan-2-yl)-1-(2-fluoroethyl)-1H-benzo[d]imidazol-5-yl)-2-(4-(ethylsulfonyl)phenyl)acetamide]	< 0.05	79.7	85.8
CCS(=O)(=O)c1ccc(CC(=O)Nc2ccc(C#CC(C)(C)Oc3ccc(F)cc3F)cc2)cc1 [Example 69, N-{4-[3-(2,4-Difluoro-phenoxy)-3-methyl-but-1-yn-1-yl]-phenyl}-2-(4-ethanesulfonyl-phenyl)-acetamide]	0.05 to 0.1	71.6	81.8
CCS(=O)(=O)c1ccc(CC(=O)Nc2ccc(OC(C)(C)c3ccc(Cl)cc3F)cc2)cc1 [Example 6, N-(4-{[2-(4-Chloro-2-fluorophenyl)propan-2-yl]oxy}phenyl)-2-[4-(ethylsulfonyl)phenyl]acetamide]	–	77.5	83.1
CCn1c(C(C)(C)Oc2ccc(NC(=O)Cc3ccc(S(=O)(=O)CC)cc3)cc2)nc2cc(Cl)ccc21 [Example 16, N-(4-{[2-(5-Chloro-1-ethyl-1H-benzimidazol-2-yl)propan-2-yl]oxy}phenyl)-2-[4-(ethylsulfonyl)phenyl]acetamide]	< 0.05	88.6	94.3
CCS(=O)(=O)c1ccc(CC(=O)Nc2ccc(OC3(c4ccc(Cl)cc4F)CC3)cc2)cc1 [Example 51, N-{4-[1-(4-Chloro-2-fluoro-phenyl)-cyclopropoxy]-phenyl}-2-(4-ethanesulfonyl-phenyl)-acetamide]	< 0.05	85.9	87.7
CCC(CC)(Oc1ccc(NC(=O)Cc2ccc(S(=O)(=O)CC)cc2)cc1)c1ccc(F)cc1F [Example 13, N-{4-[1-(2,4-Difluoro-phenyl)-1-ethyl-propoxy]-phenyl}-2-(4-ethanesulfonyl-phenyl)-acetamide]	–	56.2	68.8
CCS(=O)(=O)c1ccc(CC(=O)Nc2ccc(C#CC(C)(C)Oc3ccc(F)c(Cl)c3)cc2)cc1 [Example 68, N-{4-[3-(3-Chloro-4-fluoro-phenoxy)-3-methyl-but-1-yn-1-yl]-phenyl}-2-(4-ethanesulfonyl-phenyl)-acetamide]	–	70.7	79.9
CCS(=O)(=O)c1ccc(CC(=O)Nc2ccc(OC3(c4ccc(Cl)cc4Cl)CCCC3)c(F)c2)cc1 [Example 137, N-(4-((1-(2,4-Dichlorophenyl)cyclopentyl)oxy)-3-fluorophenyl)-2-(4-(ethylsulfonyl)phenyl)acetamide]	< 0.05	80	86.5
CCS(=O)(=O)c1ccc(CC(=O)Nc2ccc(OC(C)(C)c3ccc(F)cc3F)cc2)cc1 [Example 2, N-(4-{[2-(2,4-Difluorophenyl)propan-2-yl]oxy}phenyl)-2-[4-(ethylsulfonyl)phenyl]acetamide]	–	66.9	78
CCS(=O)(=O)c1ccc(CC(=O)Nc2ccc(OC(C)(C)c3ccc(F)cc3Cl)c(F)c2)cc1 [Example 97, N-{4-[1-(2-Chloro-4-fluoro-phenyl)-1-methyl-ethoxy]-3-fluoro-phenyl}-2-(4-ethanesulfonyl-phenyl)-acetamide]	< 0.05	80.8	82.1
CCS(=O)(=O)c1ccc(CC(=O)Nc2ccc(OC(C)(C)c3ncc(Cl)cc3Cl)cc2)cc1 [Example 11, N-{4-[1-(3,5-Dichloro-pyridin-2-yl)-1-methyl-ethoxy]-phenyl}-2-(4-ethanesulfonyl-phenyl)-acetamide]	< 0.05	84.3	89
CCS(=O)(=O)c1ccc(CC(=O)Nc2ccc(OC3(c4ccc(Cl)cc4F)CCOCC3)cc2)cc1 [Example 36, N-(4-{[4-(4-Chloro-2-fluorophenyl)tetrahydro-2H-pyran-4-yl]oxy}phenyl)-2-[4-(ethylsulfonyl)phenyl]acetamide]	–	69.9	74.7
CCS(=O)(=O)c1ccc(CC(=O)Nc2ccc(OC3(c4ccc(F)cc4F)CCCCC3)c(F)c2)cc1 [Example 140, N-(4-((1-(2,4-Difluorophenyl)cyclohexyl)oxy)-3-fluorophenyl)-2-(4-(ethylsulfonyl)phenyl)acetamide]	< 0.05	69.1	72.8
CCS(=O)(=O)c1ccc(CC(=O)Nc2ccc(OC3(c4ccc(Cl)cc4Cl)CCCCC3)c(F)c2)cc1 [Example 135, N-(4-((1-(2,4-Dichlorophenyl)cyclohexyl)oxy)-3-fluorophenyl)-2-(4-(ethylsulfonyl)phenyl)acetamide]	0.05 to 0.1	73.2	77
CCS(=O)(=O)c1ccc(CC(=O)Nc2ccc(OC3(c4ccc(Cl)cc4Cl)CCCCC3)cc2)cc1 [Example 134, N-(4-((1-(2,4-Dichlorophenyl)cyclohexyl)oxy)phenyl)-2-(4-(ethylsulfonyl)phenyl)acetamide]	< 0.05	77.3	81.1
CCS(=O)(=O)c1ccc(CC(=O)Nc2ccc(OC(C)(C)C(=O)N(C)c3ccc(Cl)cc3)cc2)cc1 [Example 128, N-(4-Chlorophenyl)-2-{4-[2-(4-ethanesulfonylphenyl)acetylamino]-phenoxy}-2-N-dimethylpropionamide]	–	64.2	79.8
CCS(=O)(=O)c1ccc(CC(=O)Nc2ccc(OC(C)(C)c3ccc(Cl)cc3Cl)c(F)c2)cc1 [Example 96, N-{4-[1-(2,4-Dichloro-phenyl)-1-methyl-ethoxy]-3-fluoro-phenyl}-2-(4-ethanesulfonyl-phenyl)-acetamide]	< 0.05	79.3	79.8
CCn1c(C(F)(F)Oc2ccc(F)cc2F)nc2cc(NC(=O)Cc3ccc(S(=O)(=O)CC)cc3)ccc21 [Example 118, N-{2-[(2,4-Difluoro-phenoxy)-difluoromethyl]-1-ethyl-1H-benzoimidazol-5-yl}-2-(4-ethanesulfonyl-phenyl)-acetamide]	–	5.43	9.14
CCn1c(C(C)(C)Oc2ccc(Cl)cc2Cl)nc2cc(NC(=O)Cc3ccc(S(=O)(=O)CC)cc3)ccc21 [Example 144, N-(2-(2-(2,4-Dichlorophenoxy)propan-2-yl)-1-ethyl-1H-benzo[d]imidazol-5-yl)-2-(4-(ethylsulfonyl)phenyl)acetamide]	< 0.05	90.6	92.5
CCn1c(C(C)(C)Oc2ccc(NC(=O)Cc3ccc(S(=O)(=O)CC)cc3)cc2)nc2cccc(Cl)c21 [Example 19, N-(4-{[2-(7-Chloro-1-ethyl-1H-benzimidazol-2-yl)propan-2-yl]oxy}phenyl)-2-[4-(ethylsulfonyl)phenyl]acetamide]	0.05 to 0.1	85.5	88.9
CCS(=O)(=O)c1ccc(CC(=O)Nc2ccc(OC3(c4ccc(Cl)cc4Cl)CCCC3)cc2)cc1 [Example 123, N-{4-[1-(2,4-Dichlorophenyl)-cyclopentyloxy]-phenyl}-2-(4-ethanesulfonyl-phenyl)-acetamide]	< 0.05	82	87.2
CCS(=O)(=O)c1ccc(CC(=O)Nc2cc(F)c(OC(C)(C)c3ncc(Cl)cc3Cl)c(F)c2)cc1 [Example 110, N-{4-[1-(3,5-Dichloro-pyridin-2-yl)-1-methyl-ethoxy]-3,5-difluoro-phenyl}-2-(4-ethanesulfonyl-phenyl)-acetamide]	–	23.7	47.6
CCS(=O)(=O)c1ccc(CC(=O)Nc2ccc3c(c2)nc(C(C)(C)Oc2ccc(F)cc2F)n3CC2CC2)cc1 [Example 114, N-{1-Cyclopropylmethyl-2-[1-(2,4-difluoro-phenoxy)-1-methyl-ethyl]-1H-benzoimidazol-5-yl}-2-(4-ethanesulfonyl-phenyl)-acetamide]	< 0.05	78.9	82.6
CCS(=O)(=O)c1ccc(CC(=O)Nc2ccc(C#CC(C)(C)Oc3cc(F)c(F)cc3F)cc2)cc1 [Example 74, 2-(4-Ethanesulfonyl-phenyl)-N-{4-[3-methyl-3-(2,4,5-trifluoro-phenoxy)-but-1-yn-1-yl]-phenyl}-acetamide]	< 0.05	73.6	78.8
CCn1c(C(C)(C)Oc2ccc(NC(=O)Cc3ccc(S(=O)(=O)CC)cc3)cc2)nc2ccc(F)cc21 [Example 14, N-(4-{[2-(1-ethyl-6-fluoro-1H-benzimidazol-2-yl)propan-2-yl]oxy}phenyl)-2-[4-(ethylsulfonyl)phenyl]acetamide]	< 0.05	88.9	93.3
